Patent US10206394B2, “Herbicidal compounds” (Syngenta Participations AG, priority 2014, dated 2019)
Where two headings read alike, the source gives them in different places.

Columns and labels:
Format in all cases: in vivo
[1] = test system: Echinochloa crus-galli (ECHCG); experiment: Glasshouse assay for herbicidal activity (pre- and post-emergence), percentage phytotoxicity; conditions: Echinochloa crus-galli
Summary of the method: (§1)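 Seeds were sown in standard soil in pots and grown one day (pre-emergence) or about 12 days (post-emergence) before herbicide application. Plants were kept at 24/18 °C (warm-climate) or 20/16 °C (cool-climate) day/night, 16 h light, 65% humidity, watered twice daily, and damage was scored visually at 15 DAA (POST) or 20 DAA (PRE).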

[2] = test system: Alopecurus myosuroides (ALOMY); experiment: as above; conditions: Alopecurus myosuroides
Summary of the method: as §1

[3] = test system: Avena fatua (AVEFA); experiment: as above; conditions: Avena fatua
Summary of the method: as §1

[4] = test system: Lolium perenne (LOLPE); experiment: as above; conditions: Lolium perenne
Summary of the method: as §1

[5] = test system: Winter Wheat variety 'Hereward'; experiment: Glasshouse assay for crop safety, post-emergence, +/- safener cloquintocet-mexyl (CQC), percentage phytotoxicity; conditions: 250 g/ha, evaluated after 13 days, 100=total damage, 0=no damage; for Post-emergence Crop Selectivity, percentage phytotoxicity, Wheat +CQC: with safener cloquintocet-mexyl (CQC) seed treatment 0.5 g/kg seed; for Post-emergence Crop Selectivity, percentage phytotoxicity, Wheat − CQC: without safener cloquintocet-mexyl (CQC)
Description: Test—Glasshouse Assay for Crop Safety.
Seeds of the Winter Wheat variety ‘Hereward’ were seed treated with a wettable powder formulation of the cereal herbicide safener, cloquintocet mexyl, at a rate of 0.5 grams per kilogram of dry seed prior to the initiation of glasshouse testing. Three seeds were sown per 1.5 inch plastic pot into a sandy loam soil at a depth of 1 cm, 8 days prior to application of the test compounds and was watered and grown under controlled conditions in a glasshouse (at 24/16° C., day/night; 14 hours light; 65% humidity). The plants were sprayed Post-emergence with an aqueous spray solution derived from the formulation of the technical active ingredient in acetone/water (50:50) solution containing 0.5% Tween 20 (polyoxyethelyene sorbitan monolaurate, CAS RN 9005-64-5).
The test plants were then grown in a glasshouse under controlled conditions (at 24/16° C., day/night; 14 hours light; 65% humidity) and watered twice daily. After 13 days for pre and post-emergence, the test was evaluated (100=total damage to plant; 0=no damage to plant).

[6] = post-emergence, 360 h, Rate 250 g/ha, post-emergence, assessed visually 15 DAA, 100%=total damage, 0%=no damage, read-out: Post-emergence herbicidal activity (percentage phytotoxicity) ECHCG POST
[7] = pre-emergence, 480 h, Rate 250 g/ha, pre-emergence, assessed visually 20 DAA, 100%=total damage, 0%=no damage, read-out: Pre-emergence herbicidal activity (percentage phytotoxicity) ECHCG PRE
[8] = post-emergence, 360 h, Rate 250 g/ha, post-emergence, assessed visually 15 DAA, 100%=total damage, 0%=no damage, read-out: Post-emergence herbicidal activity (percentage phytotoxicity) ALOMY POST
[9] = pre-emergence, 480 h, Rate 250 g/ha, pre-emergence, assessed visually 20 DAA, 100%=total damage, 0%=no damage, read-out: Pre-emergence herbicidal activity (percentage phytotoxicity) ALOMY PRE
[10] = post-emergence, 360 h, Rate 250 g/ha, post-emergence, assessed visually 15 DAA, 100%=total damage, 0%=no damage, read-out: Post-emergence herbicidal activity (percentage phytotoxicity) AVEFA POST
[11] = pre-emergence, 480 h, Rate 250 g/ha, pre-emergence, assessed visually 20 DAA, 100%=total damage, 0%=no damage, read-out: Pre-emergence herbicidal activity (percentage phytotoxicity) AVEFA PRE
[12] = post-emergence, 360 h, Rate 250 g/ha, post-emergence, assessed visually 15 DAA, 100%=total damage, 0%=no damage, read-out: Post-emergence herbicidal activity (percentage phytotoxicity) LOLPE POST
[13] = pre-emergence, 480 h, Rate 250 g/ha, pre-emergence, assessed visually 20 DAA, 100%=total damage, 0%=no damage, read-out: Pre-emergence herbicidal activity (percentage phytotoxicity) LOLPE PRE

Structure (SMILES) | pest or weed control at 250 g/ha [1, 6] [%] | pest or weed control at 250 g/ha [1, 7] [%] | pest or weed control at 250 g/ha [2, 8] [%] | pest or weed control at 250 g/ha [2, 9] [%] | pest or weed control at 250 g/ha [3, 10] [%] | pest or weed control at 250 g/ha [3, 11] [%] | pest or weed control at 250 g/ha [4, 12] [%] | pest or weed control at 250 g/ha [4, 13] [%] | Post-emergence Crop Selectivity, percentage phytotoxicity, Wheat +CQC [5] [%] | Post-emergence Crop Selectivity, percentage phytotoxicity, Wheat − CQC [5] [%] | also measured
Cc1cc(C)c(C2C(=O)CC(CC(=O)NC3CC3)C2=O)c(C)c1 (stereo not drawn) [Compound A15] | 100 | 100 | 80 | 80 | 80 | 50 | 100 | 100 | 20 | 20 | –
CCCN(C)C(=O)CC1CC(=O)C(c2c(C)cc(C)cc2C)C1=O (stereo not drawn) [Compound A25] | 90 | 80 | 70 | 70 | 70 | 70 | 90 | 90 | 0 | 40 | –
CCNC(=O)CC1CC(=O)C(c2c(C)cc(C)cc2C)C1=O (stereo not drawn) [Compound A20] | 100 | 100 | 80 | 70 | 80 | 70 | 100 | 100 | 20 | 40 | –
CCCCNC(=O)CC1CC(=O)C(c2c(C)cc(C)cc2C)C1=O (stereo not drawn) [Compound A12] | 80 | 100 | 100 | 90 | 80 | 70 | 90 | 100 | 0 | 70 | –
Cc1cc(C)c(C2C(=O)CC(CC(=O)NC(C)(C)C)C2=O)c(C)c1 (stereo not drawn) [Compound A2, N-tert-butyl-2-[2,4-dioxo-3-(2,4,6-trimethylphenyl)cyclopentyl]-acetamide] | 50 | 70 | 80 | 80 | 70 | 10 | 80 | 80 | 10 | 10 | –
Cc1cc(-c2ncc(Cl)cc2F)cc(C)c1C1C(=O)CC(CC(=O)NC(C)(C)C)C1=O (stereo not drawn) [Compound A39, N-tert-butyl-2-[3-[4-(5-chloro-3-fluoro-2-pyridyl)-2,6-dimethyl-phenyl]-2,4-dioxo-cyclopentyl]acetamide] | 100 | 100 | 100 | 100 | 100 | 100 | 100 | 100 | 50 | 80 | –
Cc1cc(-c2ccc(F)cn2)cc(C)c1C1C(=O)CC(CC(=O)NC(C)(C)C)C1=O (stereo not drawn) [Compound A80] | 100 | 100 | 100 | 100 | 100 | 90 | 100 | 100 | 20 | 70 | –
Cc1cc(C)c(C2C(=O)CC(CC(=O)N3CCCCC3)C2=O)c(C)c1 (stereo not drawn) [Compound A22] | 90 | 100 | 80 | 60 | 60 | 30 | 80 | 70 | 50 | 60 | –
Cc1cc(-c2ccc(Cl)cn2)cc(C)c1C1C(=O)CC(CC(=O)NCc2cccc(Cl)c2)C1=O (stereo not drawn) [Compound B374] | – | – | – | – | – | – | – | – | – | – | pest or weed control at 250 g/ha ([1]; post-emergence, 360 h, Rate 250 g/ha, post-emergence, visual assessment 15 DAA, 100%=total damage, 0%=no damage, read-out: Post-emergence herbicidal activity (percentage phytotoxicity) ECHCG POST): 100%; pest or weed control at 250 g/ha ([1]; pre-emergence, 480 h, Rate 250 g/ha, pre-emergence, visual assessment 20 DAA, 100%=total damage, 0%=no damage, read-out: Pre-emergence herbicidal activity (percentage phytotoxicity) ECHCG PRE): 90%; pest or weed control at 250 g/ha ([2]; post-emergence, 360 h, Rate 250 g/ha, post-emergence, visual assessment 15 DAA, 100%=total damage, 0%=no damage, read-out: Post-emergence herbicidal activity (percentage phytotoxicity) ALOMY POST): 90%; pest or weed control at 250 g/ha ([2]; pre-emergence, 480 h, Rate 250 g/ha, pre-emergence, visual assessment 20 DAA, 100%=total damage, 0%=no damage, read-out: Pre-emergence herbicidal activity (percentage phytotoxicity) ALOMY PRE): 70%; pest or weed control at 250 g/ha ([3]; post-emergence, 360 h, Rate 250 g/ha, post-emergence, visual assessment 15 DAA, 100%=total damage, 0%=no damage, read-out: Post-emergence herbicidal activity (percentage phytotoxicity) AVEFA POST): 100%; pest or weed control at 250 g/ha ([3]; pre-emergence, 480 h, Rate 250 g/ha, pre-emergence, visual assessment 20 DAA, 100%=total damage, 0%=no damage, read-out: Pre-emergence herbicidal activity (percentage phytotoxicity) AVEFA PRE): 90%; pest or weed control at 250 g/ha ([4]; post-emergence, 360 h, Rate 250 g/ha, post-emergence, visual assessment 15 DAA, 100%=total damage, 0%=no damage, read-out: Post-emergence herbicidal activity (percentage phytotoxicity) LOLPE POST): 90%; pest or weed control at 250 g/ha ([4]; pre-emergence, 480 h, Rate 250 g/ha, pre-emergence, visual assessment 20 DAA, 100%=total damage, 0%=no damage, read-out: Pre-emergence herbicidal activity (percentage phytotoxicity) LOLPE PRE): 90%
C=CC1(NC(=O)CC2CC(=O)C(c3c(C)cc(C)cc3C)C2=O)CC1 (stereo not drawn) [Compound B62] | – | – | – | – | – | – | – | – | – | – | pest or weed control at 250 g/ha ([1]; post-emergence, 360 h, 250 g/ha, post-emergence, 15 DAA, visual assessment (100%=total damage, 0%=no damage), read-out: Post-emergence herbicidal activity (percentage phytotoxicity) ECHCG POST): 70%; pest or weed control at 250 g/ha ([1]; pre-emergence, 480 h, 250 g/ha, pre-emergence, 20 DAA, visual assessment (100%=total damage, 0%=no damage), read-out: Pre-emergence herbicidal activity (percentage phytotoxicity) ECHCG PRE): 90%; pest or weed control at 250 g/ha ([2]; post-emergence, 360 h, 250 g/ha, post-emergence, 15 DAA, visual assessment (100%=total damage, 0%=no damage), read-out: Post-emergence herbicidal activity (percentage phytotoxicity) ALOMY POST): 70%; pest or weed control at 250 g/ha ([2]; pre-emergence, 480 h, 250 g/ha, pre-emergence, 20 DAA, visual assessment (100%=total damage, 0%=no damage), read-out: Pre-emergence herbicidal activity (percentage phytotoxicity) ALOMY PRE): 80%; pest or weed control at 250 g/ha ([3]; post-emergence, 360 h, 250 g/ha, post-emergence, 15 DAA, visual assessment (100%=total damage, 0%=no damage), read-out: Post-emergence herbicidal activity (percentage phytotoxicity) AVEFA POST): 70%; pest or weed control at 250 g/ha ([3]; pre-emergence, 480 h, 250 g/ha, pre-emergence, 20 DAA, visual assessment (100%=total damage, 0%=no damage), read-out: Pre-emergence herbicidal activity (percentage phytotoxicity) AVEFA PRE): 40%; pest or weed control at 250 g/ha ([4]; post-emergence, 360 h, 250 g/ha, post-emergence, 15 DAA, visual assessment (100%=total damage, 0%=no damage), read-out: Post-emergence herbicidal activity (percentage phytotoxicity) LOLPE POST): 90%; pest or weed control at 250 g/ha ([4]; pre-emergence, 480 h, 250 g/ha, pre-emergence, 20 DAA, visual assessment (100%=total damage, 0%=no damage), read-out: Pre-emergence herbicidal activity (percentage phytotoxicity) LOLPE PRE): 90%
